The values below come from patent US4629728A, “Antihypoxemic 5-(4-substituted piperazinyl)alkyl-8-substituted quinolines” (ADIR S.A.R.L., priority 1984, dated 1986).

Read-outs that look alike come from different tables or passages of the source.

Assay [1] in a line: prolongation of life in acute global ischemic syndrome by intravenous injection of magnesium chloride. It counts as in vivo. To be noted: mice; for minimal effective dose: Mus musculus. The protocol: The compounds of general formula I are tested by their capacity to prolong the life of mice submitted to an acute global ischemic syndrome by intravenous injection of magnesium chloride.

Assay [2] can be described thus: survival in acute global hypoxic syndrome due to inhalation of pure azote. The format is in vivo. To be noted: Mus musculus; mice, intraperitoneal route or per os; read-out: average effective dose (ED50) increasing the survival time by 50% in relation to the control animals. The protocol:
In the same way, the compounds of general formula I show a protective effect in mice during an acute global hypoxic syndrome due to inhalation of pure azote. The beneficial action is seen at the same doses as for the previous test. The same effective dose relation is found with the reference substances.
The average effective dose (ED50) increasing the survival time by 50% in relation to the control animals is approximately 3 mg/kg when these compounds are administered by intraperitoneal route or per os particularly with the compounds of Examples 38, 40, 51 and 54 described herein after.

The nature of assay [3]: cerebral oedema by hypoperfusion of 1 hour (ischemic syndrome) or by triethyl tin per os. The format is in vivo. To be noted: reference substances.
A further assay deals with cortical electrogenesis. Briefly: iterative anoxias test (losses of cortical electrogenesis). The format is in vivo. To be noted: rats, administered intravenously. The protocol: The protective activity vis-a-vis the losses of cortical electrogenesis connected to the ischemic or hypoxic syndrome is evaluated by the iterative anoxias test in rats. […] After the second anoxia, whilst the control animals no longer recuperate their electrocortical activity, the animals treated with the compounds in particular the compounds described in Examples 30, 37, 38, 40 and 54 recover it when they have received by IV perfusion 33 micro g/kg of these. The reference substances only restore it later, at the 120th second for eburnamonine or nicergoline.

The subject of assay [4] is mitochondrias of the cerebral cortex. Briefly: oxidative phosphorylation capacity of mitochondrias of the cerebral cortex after an ischemic syndrome. It counts as in vivo, rats. To be noted: ischemied rat, reference products. From the text: These same compounds show their pharmacological action vis-a-vis losses of the oxidative phosphorylation capacity of mitochondrias of the cerebral cortex obtained after an ischemic syndrome in rats. […] The same activity is only obtained for the reference products with dihydroergotoxine.

Where [5] appears, read: ip, intraperitoneal route, MgCl2 i.v., read-out: dose from which life of ischemied mice is significantly prolonged.

As for `COc1ccccc1N1CCN(CCc2ccc(OS(C)(=O)=O)c3c2CCCN3)CC1` [Example 30, 5-{2-[4-(2-methoxyphenyl)piperazinyl]ethyl}-8-methylsulfonyloxy-1,2,3,4-tetrahydro quinoline], the minimal effective dose in assay [1] (setting [5]) turned out to be 1 mg/kg.

The ED50 is the dose at which the effect has come halfway, by size or by number of responders. Consider `CC(=O)N1CCCc2c(CCN3CCN(c4ccccn4)CC3)ccc(O)c21` [Example 38, 1-acetyl-5-{2-[4-(2-pyridyl)piperazinyl]ethyl}-8-hydroxy-1,2,3,4-tetrahydro quinoline], for which the minimal effective dose in assay [1] (setting [5]) was 1 mg/kg. Moreover, in assay [2], the ED50 is roughly 3 mg/kg. The matching figures for `COc1ccccc1N1CCN(CCc2ccc(OC)c3c2CCCN3C(C)=O)CC1` [Example 40, 1-acetyl-5-{2-[4-(2-methoxyphenyl)piperazinyl]ethyl}-8-methoxy-1,2,3,4-tetrahydro quinoline]: 1 mg/kg and roughly 3 mg/kg. `COc1ccccc1N1CCN(CCc2ccc(O)c3c2CCCN3C)CC1` [Example 51, 1-methyl-5-{2-[4-(2-methoxyphenyl)piperazinyl]ethyl}-8-hydroxy-1,2,3,4-tetrahydro quinoline]: the ED50 in assay [2] was roughly 3 mg/kg. On to `COc1ccccc1N1CCN(CCc2ccc(OC)c3c2CCCN3C=O)CC1` [Example 54, 1-formyl-5-{-2-[4-(2-methoxyphenyl)piperazinyl]ethyl}-8-methoxy-1,2,3,4-tetrahydro quinoline], for which the minimal effective dose in assay [1] (setting [5]) stood at 1 mg/kg. Also, the ED50 in assay [2] is roughly 3 mg/kg. `CO[C@]12C[C@@H](COC(=O)c3cncc(Br)c3)CN(C)[C@@H]1Cc1cn(C)c3cccc2c13` [nicergoline]: in assay [3], the “higher dose needed for equally intense anti-oedema protective activity (relative to the compounds)” value came out at 3 times more. In the case of `CC[C@]12CCCN3CCc4c(n(c5ccccc45)[C@@](O)(C(=O)OC)C1)[C@@H]32` [vincamine, reference compound], the minimal effective dose in assay [1] (po, per os, reference substances, read-out: effective dose per os (inactive up to / no effect below)) was no less than 100 mg/kg. Besides, in assay [3], the “higher dose needed for equally intense anti-oedema protective activity (relative to the compounds)” value was 5 times more.

In the case of dihydroergotoxine, in assay [1] (per os, reference substances), the “effective dose per os (inactive up to / no effect below)” value is listed as greater than 10 mg/kg. In addition, in the assay with cortical electrogenesis, the “activity in iterative anoxias test compared with the compounds” value is “comparable activity”. The “activity on mitochondrial oxygen consumption compared with the compounds” value in assay [4] is “same activity”.
